Laboratory results as given in patent publication EP3755703B1, “N-(PHENYL)-2-(PHENYL)PYRIMIDINE-4-CARBOXAMIDE DERIVATIVES AND RELATED COMPOUNDS AS HPK1 INHIBITORS FOR TREATING CANCER” (Incyte Corporation, priority 2018, dated 2019).

The compounds below were run against T1, HPK1 (Homo sapiens, UniProt Q92918) (assay: HPK1 Kinase Binding Assay). Conditions: LanthaScreen tracer 222, one hour incubation at 25 °C.
T1 construct: purchased SignalChem M23-11G
T1 sequence (Q92918 1-346 limits assumed): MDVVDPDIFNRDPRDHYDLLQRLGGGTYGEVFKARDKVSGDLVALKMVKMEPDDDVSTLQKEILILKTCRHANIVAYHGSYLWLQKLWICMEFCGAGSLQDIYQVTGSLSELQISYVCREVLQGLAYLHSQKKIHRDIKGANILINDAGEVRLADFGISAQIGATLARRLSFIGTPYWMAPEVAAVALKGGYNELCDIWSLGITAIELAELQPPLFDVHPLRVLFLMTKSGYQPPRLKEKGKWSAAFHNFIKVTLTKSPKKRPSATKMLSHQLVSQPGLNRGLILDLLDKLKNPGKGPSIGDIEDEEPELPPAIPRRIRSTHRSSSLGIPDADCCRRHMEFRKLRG

Ki, < 100 nM:
COc1cccc(F)c1-c1nccc(C(=O)Nc2ccc(-c3cnccc3C#N)cc2N2CCO[C@@H](CN(C)C)C2)n1 [Example 101, (S)-N-(4-(4-Cyanopyridin-3-yl)-2-(2-((dimethylamino)methyl)morpholino)phenyl)-2-(2-fluoro-6-methoxyphenyl)pyrimidine-4-carboxamide]
COc1cccc(F)c1-c1nccc(C(=O)Nc2ccc(-c3cnccc3C#N)cc2N2CCO[C@H](CC#N)C2)n1 [Example 102, (R)-N-(2-(2-(Cyanomethyl)morpholino)-4-(4-cyanopyridin-3-yl)phenyl)-2-(2-fluoro-6-methoxyphenyl)pyrimidine-4-carboxamide]
COc1cccc(F)c1-c1nccc(C(=O)Nc2ccc(-c3cnccc3C#N)cc2N2CCN3C(=O)OC[C@H]3C2)n1 [Example 103, (R)-N-(4-(4-Cyanopyridin-3-yl)-2-(3-oxotetrahydro-3H-oxazolo[3,4-a]pyrazin-7(1H)-yl)phenyl)-2-(2-fluoro-6-methoxyphenyl)pyrimidine-4-carboxamide]
COc1cccc(F)c1-c1nccc(C(=O)Nc2cc(F)ccc2N2CCN[C@H](CO)C2)n1 [Example 104, (S)-N-(5-Fluoro-2-(3-(hydroxymethyl)piperazin-1-yl)phenyl)-2-(2-fluoro-6-methoxyphenyl)pyrimidine-4-carboxamide]
COCC1CN(c2cc(-c3cnccc3C#N)ccc2NC(=O)c2ccnc(-c3c(F)cccc3OC)n2)C1 [Example 105, N-(4-(4-Cyanopyridin-3-yl)-2-(3-(methoxymethyl)azetidin-1-yl)phenyl)-2-(2-fluoro-6-methoxyphenyl)pyrimidine-4-carboxamide]
COc1cccc(F)c1-c1nccc(C(=O)Nc2ccc(-c3cnccc3C#N)cc2N2CC[C@H]2CO)n1 [Example 106, (S)-N-(4-(4-Cyanopyridin-3-yl)-2-(2-(hydroxymethyl)azetidin-1-yl)phenyl)-2-(2-fluoro-6-methoxyphenyl)pyrimidine-4-carboxamide]
COc1cccc(F)c1-c1nccc(C(=O)Nc2ccc(-c3cnccc3C#N)cc2N2CC[C@@H]2CN(C)C)n1 [Example 107, (R)-N-(4-(4-Cyanopyridin-3-yl)-2-(2-((dimethylamino)methyl)azetidin-1-yl)phenyl)-2-(2-fluoro-6-methoxyphenyl)pyrimidine-4-carboxamide]
COc1cccc(F)c1-c1nccc(C(=O)Nc2ccc(-c3cnccc3C#N)cc2N2CCN(C)CC2)n1 [Example 108, N-(4-(4-Cyanopyridin-3-yl)-2-(4-methylpiperazin-1-yl)phenyl)-2-(2-fluoro-6-methoxyphenyl)pyrimidine-4-carboxamide]
COc1cccc(F)c1-c1nccc(C(=O)Nc2ccc(-c3cnccc3C#N)cc2N2CCN(CCO)CC2)n1 [Example 109, N-(4-(4-Cyanopyridin-3-yl)-2-(4-(2-hydroxyethyl)piperazin-1-yl)phenyl)-2-(2-fluoro-6-methoxyphenyl)pyrimidine-4-carboxamide]
COc1cccc(F)c1-c1nccc(C(=O)Nc2cc(F)c(C(C)C)cc2N2CCN[C@H](CO)C2)n1 [Example 110, (S)-N-(5-Fluoro-2-(3-(hydroxymethyl)piperazin-1-yl)-4-isopropylphenyl)-2-(2-fluoro-6-methoxyphenyl)pyrimidine-4-carboxamide]
